Data taken from PubChem BioAssay AID256 (DTP/NCI, 2004).
Several values for one entry are separate records, joined by “and”; a condition that tells them apart may be missing. Identical values can stand only once. Toxic doses and inconclusive results are not listed. The calls were made as follows: active = survival T/C of 150% or more; inactive = T/C below 125% in these data.

Test system: CD2F1 mice, L1210 leukemia ip, survival T/C
Assay: NCI In Vivo Anticancer Drug Screen. Data for tumor model L1210 Leukemia (intraperitoneal) in CD2F1 (CDF1) mice
Details: higher = longer survival
Summary of the method: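 Tumor-bearing mice (transplanted tumor) were split into treated and vehicle control groups, and the measured endpoint of each treated group was divided by that of its vehicle controls.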

[1] = endpoint: mean survival time, dose: 100.0 mg/kg/injection, schedule: Q04DX003 (ip), vehicle: saline
[2] = endpoint: mean survival time, dose: 200.0 mg/kg/injection, schedule: Q04DX003 (ip), vehicle: saline
[3] = endpoint: mean survival time, dose: 400.0 mg/kg/injection, schedule: Q04DX003 (ip), vehicle: saline
[4] = endpoint: mean survival time, dose: 100.0 mg/kg/injection, schedule: Q04DX003 (ip), vehicle: saline with Tween-80
[5] = endpoint: mean survival time, dose: 200.0 mg/kg/injection, schedule: Q04DX003 (ip), vehicle: saline with Tween-80
[6] = endpoint: mean survival time, dose: 400.0 mg/kg/injection, schedule: Q04DX003 (ip), vehicle: saline with Tween-80
[7] = endpoint: mean survival time, dose: 12.5 mg/kg/injection, schedule: Q01DX009 (ip), vehicle: saline with Tween-80
[8] = endpoint: mean survival time, dose: 25.0 mg/kg/injection, schedule: Q01DX009 (ip), vehicle: saline with Tween-80
[9] = endpoint: mean survival time, dose: 50.0 mg/kg/injection, schedule: Q01DX009 (ip), vehicle: Klucel (hydroxypropylcellulose) (HPC)
[10] = endpoint: mean survival time, dose: 100.0 mg/kg/injection, schedule: Q01DX009 (ip), vehicle: Klucel (hydroxypropylcellulose) (HPC)
[11] = endpoint: mean survival time, dose: 200.0 mg/kg/injection, schedule: Q01DX009 (ip), vehicle: Klucel (hydroxypropylcellulose) (HPC)
[12] = endpoint: mean survival time, dose: 100.0 mg/kg/injection, schedule: Q01DX001 (ip), vehicle: saline with Tween-80
[13] = endpoint: mean survival time, dose: 100.0 mg/kg/injection, schedule: Q01DX009 (ip), vehicle: saline with Tween-80
[14] = endpoint: mean survival time, dose: 200.0 mg/kg/injection, schedule: Q01DX001 (ip), vehicle: saline with Tween-80
[15] = endpoint: mean survival time, dose: 200.0 mg/kg/injection, schedule: Q01DX009 (ip), vehicle: saline with Tween-80
[16] = endpoint: mean survival time, dose: 400.0 mg/kg/injection, schedule: Q01DX001 (ip), vehicle: saline with Tween-80
[17] = endpoint: mean survival time, dose: 400.0 mg/kg/injection, schedule: Q01DX009 (ip), vehicle: saline with Tween-80
[18] = endpoint: mean survival time, dose: 100.0 mg/kg/injection, schedule: Q04DX002 (ip), vehicle: saline with Tween-80
[19] = endpoint: mean survival time, dose: 200.0 mg/kg/injection, schedule: Q04DX002 (ip), vehicle: saline with Tween-80
[20] = endpoint: mean survival time, dose: 400.0 mg/kg/injection, schedule: Q04DX002 (ip), vehicle: saline with Tween-80
[21] = endpoint: mean survival time, dose: 50.0 mg/kg/injection, schedule: Q01DX009 (ip), vehicle: saline with Tween-80

Measured: T/C

CC(C)([NH-])C[NH-].[Cl][Pt+2][Cl]
inactive: endpoint: median survival time, dose: 10.0 mg/kg/injection, schedule: Q04DX003 (ip), vehicle: saline with Tween-80 98 % of control | endpoint: median survival time, dose: 20.0 mg/kg/injection, schedule: Q04DX003 (ip), vehicle: saline with Tween-80 95 % of control | endpoint: median survival time, dose: 40.0 mg/kg/injection, schedule: Q04DX003 (ip), vehicle: saline with Tween-80 102 % of control | endpoint: median survival time, dose: 80.0 mg/kg/injection, schedule: Q04DX003 (ip), vehicle: saline with Tween-80 103 % of control and 112 % of control | endpoint: median survival time, dose: 160.0 mg/kg/injection, schedule: Q04DX003 (ip), vehicle: saline with Tween-80 117 % of control

COC1(OC)C(Cl)=C(Cl)C2C1C1(Cl)C(Cl)=C(Cl)C2(Cl)C1(OC)OC (stereo unspecified)
inactive: endpoint: mean survival time, dose: 100.0 mg/kg/injection, schedule: Q01DX001 (ip), vehicle: saline 106 % of control | [1] 105 % of control | endpoint: mean survival time, dose: 200.0 mg/kg/injection, schedule: Q01DX001 (ip), vehicle: saline 106 % of control | [2] 103 % of control | endpoint: mean survival time, dose: 400.0 mg/kg/injection, schedule: Q01DX001 (ip), vehicle: saline 102 % of control | [3] 100 % of control

CCOC(=O)c1c(F)c(F)c(Oc2c(F)c(F)c(F)c(F)c2F)c(F)c1F
inactive: [4] 86 % of control | [5] 96 % of control | [6] 92 % of control

Nc1ncnc2c(C3OC(CO)C(O)C3O)[nH]nc12 (stereo unspecified)
inactive: endpoint: mean survival time, dose: 6.25 mg/kg/injection, schedule: Q01DX009 (ip), vehicle: saline with Tween-80 108 % of control | [7] 120 % of control | [8] 113 % of control | [4] 101 % of control | [5] 109 % of control

c1ccc(SCN2CCN(CSc3ccccc3)CC2)cc1
inactive: endpoint: mean survival time, dose: 100.0 mg/kg/injection, schedule: Q01DX009 (ip), vehicle: saline 91 % of control

CCN(CC)S(=O)(=O)c1ccccc1
inactive: [9] 93 % of control | [10] 104 % of control | [11] 96 % of control

CC1(C)C2CC=C(C[P+](c3ccccc3)(c3ccccc3)c3ccccc3)C1C2 (stereo unspecified)
inactive: endpoint: mean survival time, dose: 5.0 mg/kg/injection, schedule: Q01DX009 (ip), vehicle: saline sonified 109 % of control | endpoint: mean survival time, dose: 5.0 mg/kg/injection, schedule: Q04DX003 (ip), vehicle: saline 103 % of control | endpoint: mean survival time, dose: 10.0 mg/kg/injection, schedule: Q04DX003 (ip), vehicle: saline 92 % of control | endpoint: mean survival time, dose: 20.0 mg/kg/injection, schedule: Q04DX003 (ip), vehicle: saline 87 % of control

COc1ccc(/C=C2/C=C(c3ccccc3)OC2=O)cc1
inactive: [1] 98 % of control | [2] 101 % of control | [3] 98 % of control

COC(=O)C1C2CC(OS(=O)(=O)c3ccc(C)cc3)C(C2)C1C(=O)OC (stereo unspecified)
inactive: [12] 93 % of control | [13] 98 % of control | [14] 95 % of control | [15] 91 % of control | [16] 92 % of control | [17] 95 % of control

CC(=O)OC(Cc1ccc(Cl)cc1)c1ccc(Cl)cc1 (stereo unspecified)
inactive: endpoint: mean survival time, dose: 50.0 mg/kg/injection, schedule: Q04DX002 (ip), vehicle: saline with Tween-80 96 % of control | [18] 96 % of control | [19] 90 % of control | [20] 90 % of control

O=C1C(c2ccccc2)=C(c2ccccc2)c2ccc(Cl)cc21
inactive: [12] 106 % of control | [14] 98 % of control | [16] 97 % of control

NC1=NC(=O)/C(=C/c2ccccc2)S1
inactive: [4] 93 % of control | [5] 97 % of control | [6] 97 % of control

O=[N+]([O-])c1cccc(SNc2cccc(Cl)c2)c1
inactive: [8] 102 % of control | [21] 90 % of control | [13] 94 % of control

CC(Cl)CN(CC(C)Cl)c1ccc(N=Nc2ccccc2)cc1 (stereo unspecified)
inactive: [9] 100 % of control | [10] 106 % of control | [11] 90 % of control

CCCCCCCCCCCCCCBr
inactive: [21] 96 % of control | [13] 103 % of control | [15] 96 % of control

Cc1cccc[n+]1[O-]
inactive: [1] 101 % of control | [2] 98 % of control | [3] 88 % of control

CSc1ccc(NC=O)cc1
inactive: endpoint: mean survival time, dose: 75.0 mg/kg/injection, schedule: Q01DX001 (ip), vehicle: saline 98 % of control | endpoint: mean survival time, dose: 150.0 mg/kg/injection, schedule: Q01DX001 (ip), vehicle: saline 100 % of control | endpoint: mean survival time, dose: 300.0 mg/kg/injection, schedule: Q01DX001 (ip), vehicle: saline 100 % of control

OCC1OC(n2cnc3c4ccccc4ccc32)C(O)C1O (stereo unspecified)
inactive: endpoint: median survival time, dose: 10.0 mg/kg/injection, schedule: Q01DX005 (ip), vehicle: saline with Tween-80 110 % of control | endpoint: median survival time, dose: 16.25 mg/kg/injection, schedule: Q01DX005 (ip), vehicle: saline with Tween-80 98 % of control | endpoint: median survival time, dose: 20.0 mg/kg/injection, schedule: Q01DX005 (ip), vehicle: saline with Tween-80 103 % of control | endpoint: median survival time, dose: 32.5 mg/kg/injection, schedule: Q01DX005 (ip), vehicle: saline with Tween-80 100 % of control | endpoint: median survival time, dose: 40.0 mg/kg/injection, schedule: Q01DX005 (ip), vehicle: saline with Tween-80 97 % of control | endpoint: median survival time, dose: 65.0 mg/kg/injection, schedule: Q01DX005 (ip), vehicle: saline with Tween-80 107 % of control | endpoint: median survival time, dose: 80.0 mg/kg/injection, schedule: Q01DX005 (ip), vehicle: saline with Tween-80 103 % of control | endpoint: median survival time, dose: 130.0 mg/kg/injection, schedule: Q01DX005 (ip), vehicle: saline with Tween-80 97 % of control

Nc1ncnc2c1[nH]c(=O)n2C1OC(CO)C(O)C1O (stereo unspecified)
inactive: [18] 95 % of control | [19] 107 % of control | [20] 95 % of control

BrC(Br)(c1ccccc1)C1OCCO1
inactive: endpoint: mean survival time, dose: 50.0 mg/kg/injection, schedule: Q01DX001 (ip), vehicle: saline with Tween-80 107 % of control | endpoint: mean survival time, dose: 50.0 mg/kg/injection, schedule: Q04DX003 (ip), vehicle: saline with Tween-80 100 % of control | [12] 100 % of control | [4] 101 % of control | [14] 102 % of control | [5] 97 % of control

COc1ccc(C2C3CN(C4CCCCC4)C(=O)C3NN2C(C)=O)cc1 (stereo unspecified)
inactive: [13] 91 % of control | [15] 89 % of control | [17] 89 % of control

CC/C(I)=C(/CC)S(=O)(=O)c1ccc(C)cc1
inactive: [1] 95 % of control | [2] 103 % of control | [3] 94 % of control

CN(C)C(=O)C(=O)C1C=Cc2ccccc21 (stereo unspecified)
inactive: [13] 98 % of control | [15] 103 % of control | [17] 93 % of control

O=S(=O)(Cl)OC1C2COC(O2)C(OS(=O)(=O)Cl)C1OS(=O)(=O)Cl (stereo unspecified)
inactive: [7] 108 % of control | [8] 103 % of control | [21] 102 % of control

CCCCCCCCCCC/C=C\C(C#N)C(=O)OCC (stereo unspecified)
inactive: [4] 103 % of control | [5] 108 % of control | [6] 87 % of control

Nc1nc2c(ncn2C2OC(COC(=O)Oc3ccccc3)C(O)C2O)c(=O)[nH]1 (stereo unspecified)
inactive: [9] 107 % of control | [10] 96 % of control | [11] 92 % of control
